Source: ChEMBL document CHEMBL3774333, “Identification of SNAIL1 Peptide-Based Irreversible Lysine-Specific Demethylase 1-Selective Inactivators” (J Med Chem, 2016)
The source made the active and inactive calls. The calls are words filed in the database; no cut-off is given here.

Legend:
[1] = target: T1, Lysine-specific histone demethylase 2 (Homo sapiens, UniProt Q8NB78); assay: biochemical
T1 sequence (Q8NB78 whole entry): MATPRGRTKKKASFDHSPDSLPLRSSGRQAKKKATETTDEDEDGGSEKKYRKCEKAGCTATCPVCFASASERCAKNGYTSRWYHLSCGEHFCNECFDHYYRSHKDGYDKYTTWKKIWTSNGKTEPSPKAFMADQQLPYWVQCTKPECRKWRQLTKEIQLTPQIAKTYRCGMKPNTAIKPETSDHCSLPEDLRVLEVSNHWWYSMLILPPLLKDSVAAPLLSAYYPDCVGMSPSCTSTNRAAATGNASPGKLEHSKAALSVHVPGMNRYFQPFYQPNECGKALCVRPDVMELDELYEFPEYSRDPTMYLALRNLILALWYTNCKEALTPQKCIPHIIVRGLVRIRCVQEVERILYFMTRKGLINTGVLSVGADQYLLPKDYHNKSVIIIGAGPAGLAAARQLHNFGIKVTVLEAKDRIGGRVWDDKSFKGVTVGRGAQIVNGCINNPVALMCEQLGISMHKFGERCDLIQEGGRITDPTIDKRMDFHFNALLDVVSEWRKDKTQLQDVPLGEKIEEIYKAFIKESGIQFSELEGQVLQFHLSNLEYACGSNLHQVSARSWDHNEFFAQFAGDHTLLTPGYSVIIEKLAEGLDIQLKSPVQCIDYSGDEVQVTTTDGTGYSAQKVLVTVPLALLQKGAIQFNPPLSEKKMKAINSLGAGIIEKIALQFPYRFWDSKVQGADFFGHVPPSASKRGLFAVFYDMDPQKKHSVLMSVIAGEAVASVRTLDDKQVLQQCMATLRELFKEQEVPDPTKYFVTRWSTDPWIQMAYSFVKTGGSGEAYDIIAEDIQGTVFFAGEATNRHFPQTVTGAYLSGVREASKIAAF
Description: Inhibition of full length N-terminal His-tagged human LSD2 (1 to 822 residues) expressed in Escherichia coli BL21(DE3) cells using H3K4me2 peptide substrate by MALDI-TOF mass spectrometric analysis

[2] = target: T2, Lysine-specific histone demethylase 1A (Homo sapiens, UniProt O60341); assay: Drug metabolism assessed as LSD1 (unknown origin)-mediated compound-FAD adduct formation after 22 hrs by MALDI-TOF mass spectrometric analysis in presence of excess of H3K4me2 substrate peptide; format: ADME
[3] = target: T3, Amine oxidase [flavin-containing] B (Homo sapiens, UniProt P27338); assay: biochemical
T3 sequence (P27338 whole entry): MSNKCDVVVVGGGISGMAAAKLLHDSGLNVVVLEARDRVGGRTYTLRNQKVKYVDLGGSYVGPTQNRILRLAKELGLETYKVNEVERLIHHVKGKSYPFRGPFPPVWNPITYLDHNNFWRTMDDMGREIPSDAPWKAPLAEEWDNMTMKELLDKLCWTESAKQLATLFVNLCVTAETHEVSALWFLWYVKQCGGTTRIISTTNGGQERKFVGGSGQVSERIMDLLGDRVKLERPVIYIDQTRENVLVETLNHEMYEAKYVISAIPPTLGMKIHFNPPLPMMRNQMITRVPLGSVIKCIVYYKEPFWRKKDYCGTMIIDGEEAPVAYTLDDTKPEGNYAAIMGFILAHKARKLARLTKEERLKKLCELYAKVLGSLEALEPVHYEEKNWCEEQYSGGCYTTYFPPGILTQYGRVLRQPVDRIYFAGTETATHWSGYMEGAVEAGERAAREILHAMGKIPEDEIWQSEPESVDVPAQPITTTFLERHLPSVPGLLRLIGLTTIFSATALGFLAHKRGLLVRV
Description: Inhibition of human recombinant MAO-B expressed in baculovirus infected BTI insect cells using (4S)-4,5-dihydro-2-(6-hydroxybenzothiazolyl)-4-thiazolecarboxylic acid as substrate incubated for 60 mins by MAO-Glo assay

[4] = target: T2, Lysine-specific histone demethylase 1A; assay: biochemical
Description: Inhibition of full length N-terminal His-tagged human recombinant LSD1 (1 to 852 residues) expressed in Escherichia coli BL21(DE3) cells using H3K4me2 peptide as substrate preincubated for 5 mins followed by substrate addition measured for 30 mins by peroxidase coupled assay

[5] = target: Lysine-specific demethylase 5A (Homo sapiens, UniProt P29375)
Chain of Lysine-specific demethylase 5A (P29375 whole entry): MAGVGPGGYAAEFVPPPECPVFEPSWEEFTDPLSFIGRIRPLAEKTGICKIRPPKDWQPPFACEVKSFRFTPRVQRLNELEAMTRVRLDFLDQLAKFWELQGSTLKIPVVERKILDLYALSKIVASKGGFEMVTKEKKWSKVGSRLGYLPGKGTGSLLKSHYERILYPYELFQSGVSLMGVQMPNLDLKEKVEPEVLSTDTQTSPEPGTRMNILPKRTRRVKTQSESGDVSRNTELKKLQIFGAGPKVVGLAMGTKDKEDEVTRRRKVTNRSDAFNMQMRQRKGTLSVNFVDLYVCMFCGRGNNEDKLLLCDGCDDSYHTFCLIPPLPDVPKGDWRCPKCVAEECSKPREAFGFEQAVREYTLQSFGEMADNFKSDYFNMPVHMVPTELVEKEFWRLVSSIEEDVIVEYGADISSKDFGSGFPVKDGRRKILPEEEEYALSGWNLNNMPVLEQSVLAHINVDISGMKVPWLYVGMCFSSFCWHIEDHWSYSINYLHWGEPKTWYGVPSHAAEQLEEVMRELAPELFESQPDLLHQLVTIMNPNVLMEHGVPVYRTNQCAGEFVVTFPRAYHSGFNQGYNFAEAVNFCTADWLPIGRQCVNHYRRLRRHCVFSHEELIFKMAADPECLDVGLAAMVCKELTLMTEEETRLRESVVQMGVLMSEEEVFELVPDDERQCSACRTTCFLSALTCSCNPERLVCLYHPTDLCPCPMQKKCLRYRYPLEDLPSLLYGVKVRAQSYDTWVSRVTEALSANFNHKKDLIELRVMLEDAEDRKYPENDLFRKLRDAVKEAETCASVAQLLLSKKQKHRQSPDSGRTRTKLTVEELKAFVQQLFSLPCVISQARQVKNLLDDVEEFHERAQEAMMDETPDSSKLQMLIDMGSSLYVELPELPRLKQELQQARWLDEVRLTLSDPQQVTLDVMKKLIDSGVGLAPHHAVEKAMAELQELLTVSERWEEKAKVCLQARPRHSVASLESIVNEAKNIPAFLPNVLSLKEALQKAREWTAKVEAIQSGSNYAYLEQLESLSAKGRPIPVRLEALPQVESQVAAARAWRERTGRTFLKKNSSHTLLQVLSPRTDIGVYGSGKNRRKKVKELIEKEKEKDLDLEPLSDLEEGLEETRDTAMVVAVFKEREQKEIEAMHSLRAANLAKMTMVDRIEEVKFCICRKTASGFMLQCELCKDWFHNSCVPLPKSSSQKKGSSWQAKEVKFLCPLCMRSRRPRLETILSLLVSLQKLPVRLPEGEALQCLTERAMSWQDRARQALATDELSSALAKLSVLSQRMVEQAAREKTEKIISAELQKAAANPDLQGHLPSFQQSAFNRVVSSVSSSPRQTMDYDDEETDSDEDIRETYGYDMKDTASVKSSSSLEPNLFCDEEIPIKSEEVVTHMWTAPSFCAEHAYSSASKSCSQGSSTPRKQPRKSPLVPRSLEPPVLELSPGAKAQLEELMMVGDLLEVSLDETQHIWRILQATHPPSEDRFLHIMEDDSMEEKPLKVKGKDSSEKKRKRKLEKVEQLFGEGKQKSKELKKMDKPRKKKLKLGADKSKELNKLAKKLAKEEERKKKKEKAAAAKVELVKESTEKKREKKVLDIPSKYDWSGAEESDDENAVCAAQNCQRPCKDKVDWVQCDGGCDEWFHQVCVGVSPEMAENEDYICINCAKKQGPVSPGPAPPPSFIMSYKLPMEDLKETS
Description: Inhibition of JARID1A (unknown origin) using H3K4me3 peptide substrate preincubated for 5 mins followed by substrate addition by MALDI-TOF mass spectrometric analysis

[6] = target: T4, Amine oxidase [flavin-containing] A (Homo sapiens, UniProt P21397); assay: biochemical
T4 sequence (P21397 whole entry): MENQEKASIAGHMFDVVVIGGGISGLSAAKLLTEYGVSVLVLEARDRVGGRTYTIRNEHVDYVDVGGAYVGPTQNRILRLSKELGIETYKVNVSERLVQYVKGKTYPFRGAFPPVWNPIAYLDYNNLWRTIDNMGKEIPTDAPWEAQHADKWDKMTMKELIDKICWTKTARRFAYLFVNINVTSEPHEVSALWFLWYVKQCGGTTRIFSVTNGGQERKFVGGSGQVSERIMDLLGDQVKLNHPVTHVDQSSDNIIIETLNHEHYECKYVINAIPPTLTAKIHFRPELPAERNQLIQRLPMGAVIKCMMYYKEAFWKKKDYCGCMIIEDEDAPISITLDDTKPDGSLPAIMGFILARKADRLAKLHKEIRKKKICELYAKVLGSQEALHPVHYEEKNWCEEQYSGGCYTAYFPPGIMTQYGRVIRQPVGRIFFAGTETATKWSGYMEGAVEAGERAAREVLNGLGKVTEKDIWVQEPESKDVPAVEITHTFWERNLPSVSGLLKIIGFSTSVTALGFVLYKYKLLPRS
Description: Inhibition of human recombinant MAO-A expressed in baculovirus infected BTI insect cells using (4S)-4,5-dihydro-2-(6-hydroxybenzothiazolyl)-4-thiazolecarboxylic acid as substrate incubated for 60 mins by MAO-Glo assay

[7] = target: T2, Lysine-specific histone demethylase 1A; assay: Inhibition of LSD1 in human HeLa cells assessed as H3K4me2/H3 ratio at 20 uM after 24 hrs by Western blot analysis in absence of fetal bovine serum; format: cell-based
[8] = tested on: HeLa; assay: Antiproliferative activity against human HeLa cells assessed as reduction in cell viability at 100 uM treated for 24 hrs measured after 48 hrs by alamar blue assay in absence of fetal bovine serum; format: functional, cell-based
[9] = tested on: HeLa; assay: Antiproliferative activity against human HeLa cells assessed as reduction in cell viability at 300 uM treated for 24 hrs measured after 48 hrs by alamar blue assay in absence of fetal bovine serum relative to control; format: functional

SMILES | IC50 [1] | Drug metabolism [2] | IC50 [3] | IC50 [4] | IC50 [5] | IC50 [6] | Ratio [7] | Activity [8] | Activity [9]
CC(C)C[C@H](NC(=O)[C@H](CCCNN)NC(=O)[C@H](CO)NC(=O)[C@H](CCCNC(=N)N)NC(=O)[C@@H]1CCCN1)C(=O)N[C@H](C(=O)N[C@@H](CCCNC(=N)N)C(=O)N[C@@H](CCCCN)C(=O)N1CCC[C@H]1C(=O)N[C@@H](CO)C(=O)N[C@@H](CC(=O)O)C(=O)N1CCC[C@H]1C(=O)N[C@@H](CC(N)=O)C(=O)N[C@@H](CCCNC(=N)N)C(=O)N[C@@H](CCCCN)C(=O)N1CCC[C@H]1C(=O)N[C@@H](CC(N)=O)C(=O)N[C@@H](Cc1ccc(O)cc1)C(=O)N[C@@H](CO)C(=O)N[C@@H](CCC(N)=O)C(N)=O)C(C)C | > 50 µM | metabolite_notdetected | > 30 µM | 440 nM | > 50 µM | > 30 µM | – | – | –
O=C(O)c1ccc(CN2CCC(CN[C@H]3C[C@@H]3c3ccccc3)CC2)cc1 | – | – | – | 610 nM | – | – | 2.03 | inactive | 9.96%
